Data as given in PMC6981392, “Characterization of a Maltase from an Early-Diverged Non-Conventional Yeast Blastobotrys adeninivorans” (International Journal of Molecular Sciences, 2019).
Entries after “also recorded” stand apart in the source; their conditions may differ. Where two headings read alike, the source gives them in different places.

Legend:
BaAG2 [1] = molecular target: T1, BaAG2 (Blastobotrys adeninivorans, UniProt Z9CO09ION3); assay: Substrate specificity of BaAG2 on 100 mM sugars and 1 mM pNPG; assay type: biochemical; conditions: 100 mM sugars, pH 6.5, 30 °C
T1 sequence (Z9CO09ION3 1-580): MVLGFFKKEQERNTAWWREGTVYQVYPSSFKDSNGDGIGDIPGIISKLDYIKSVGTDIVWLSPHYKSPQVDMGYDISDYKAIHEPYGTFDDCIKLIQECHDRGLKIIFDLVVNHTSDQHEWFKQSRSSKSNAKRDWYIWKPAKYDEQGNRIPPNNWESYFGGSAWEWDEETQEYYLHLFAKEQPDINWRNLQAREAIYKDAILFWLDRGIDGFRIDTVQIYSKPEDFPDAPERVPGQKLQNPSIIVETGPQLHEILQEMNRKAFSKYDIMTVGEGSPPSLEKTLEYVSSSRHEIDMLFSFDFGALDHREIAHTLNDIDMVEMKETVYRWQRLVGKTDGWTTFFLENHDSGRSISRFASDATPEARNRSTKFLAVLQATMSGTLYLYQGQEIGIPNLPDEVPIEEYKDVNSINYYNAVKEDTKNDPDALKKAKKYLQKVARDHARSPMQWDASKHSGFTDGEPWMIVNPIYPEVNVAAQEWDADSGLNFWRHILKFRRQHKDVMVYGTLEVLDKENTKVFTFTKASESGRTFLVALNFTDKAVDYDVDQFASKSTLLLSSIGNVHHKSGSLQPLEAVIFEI
Method: Hydrolysis of pNPG was assayed as in [16, 40] according to the release of p-nitrophenol. 100 mM K-phosphate buffer (pH 6.5) was used and reactions were conducted at 30 °C if not stated otherwise. The purified enzyme was unstable if diluted therefore 5 g/L bovine serum albumin (BSA) was added to the dilution buffer as a protein stabilizer to retain its full catalytic activity. […] The content of the released glucose was determined spectrophotometrically as in [16, 47]. The activities (µmoles of glucose released per minute per mg of protein; U/mg) were calculated from initial velocities of the reaction. For kinetic analysis, initial rates of p-nitrophenol or glucose release from substrates were measured at four to seven concentrations ranging from 0.1–3.0 mM for pNPG and 2.5–250 mM for di- and trisaccharides. At least three independent measurements for each substrate and concentration were made. BaAG2 content in reaction mixtures ranged from 0.02 to 3.5 µg/mL. […] The theoretical Mw value of 67,901 Da for the kcat calculation was computed in ExPASy Proteomics Server (http://expasy.org).

[2] = test system: B. adeninivorans CBS 8244; design: method as in earlier work; conditions: CBS-KNAW culture collection; cited from earlier work
BaAG2 [3] = molecular target: T1, BaAG2; assay: TLC assay of panose hydrolysis by BaAG2; conditions: 50 mM panose, extended (22 h) reaction time
Method: The reaction samples were analyzed using TLC.
To visualize hydrolysis and polymerization products, the TLC analysis was conducted as in [16] on Silica Gel 60 F254 plates with concentrating zone (Merck, Darmstadt, Germany). 0.5 µl of the stopped reaction mixture were spotted onto the plate and sugars were separated with two runs in chloroform:acetic acid:water (6:7:1, v:v:v) [67]. For the analysis of products of polysaccharide degradation, 3 µl of the reaction mixtures were spotted. Sugars were visualized by immersion of the plates in aniline-diphenylamine reagent and subsequent heating of the dried plates at 100 °C [68].

[4] = test system: α-glucosidase of A. niger; design: method as in doi:10.1271/bbb1961.55.2327; conditions: on maltose; cited from earlier work
[5] = test system: extracellular α-glucosidase of Schizosaccharomyces pombe; conditions: on maltose; cited from earlier work
B. adeninivorans = assay: Growth of B. adeninivorans on sugars (OD 600 nm); assay type: cell-based, Blastobotrys adeninivorans; conditions: YNB medium, 2 g/L sugar, 24 h, 37 °C
Method: Blastobotrys (Arxula) adeninivorans LS3 (CBS 8244) was kindly provided by Assoc. Prof. V. Passoth (SLU, Uppsala, Sweden). The yeast strain was grown on solid YPD medium (20 g/L peptone, 20 g/L glucose, 10 g/L yeast extract, 20 g/L agar) at 30 °C 24 h for harvesting the cells for genomic DNA extraction. E. coli DH5α (Thermo Fisher Scientific, Waltham, MA, USA) was used for DNA cloning and plasmid production. E. coli BL21 (DE3) was used for heterologous expression of BaAG2. The ability of B. adeninivorans to grow on sugars was assayed as in [12]. Yeast cells grown overnight on BD Difco YNB medium (Thermo Fisher Scientific, Waltham, MA, USA) without amino acids containing 2 g/L glucose were used as inoculum. […] The cells were incubated on Greiner 96-well flat-bottom transparent polystyrene microplates (Greiner Bio-One, Frickenhausen, Germany) in 200 µl under agitation for 24 h at 37 °C. Optical density of the culture at 600 nm was measured against inoculated medium without sugar at the beginning and end of the experiment using an Infinite M200 PRO microplate reader (Tecan Group Ltd., Männedorf, Switzerland) equipped with Tecan i-control v. 1.7 software from the same provider. Two independent experiments with two parallel measurements were conducted.

BaAG2 [6] = molecular target: T1, BaAG2; assay: Kinetics of hydrolysis of pNPG and sugars by BaAG2; conditions: for Km: read-out: Km ± SD; for Km / Vmax ± SD / kcat ± SD: substrate hydrolysis, pH 6.5, 30 °C; for kcat ± SD: calculated from Vmax with Mw 67,901 Da
Method: (§1) 100 mM K-phosphate buffer (pH 6.5) was used and reactions were conducted at 30 °C if not stated otherwise. The purified enzyme was unstable if diluted therefore 5 g/L bovine serum albumin (BSA) was added to the dilution buffer as a protein stabilizer to retain its full catalytic activity. […] The content of the released glucose was determined spectrophotometrically as in [16, 47]. The activities (µmoles of glucose released per minute per mg of protein; U/mg) were calculated from initial velocities of the reaction. […] At least three independent measurements for each substrate and concentration were made.

BaAG2 [7] = molecular target: T1, BaAG2; assay: Inhibition of pNPG hydrolysis by BaAG2
Method: as §1
The Ki values were calculated using enzyme kinetics module of the SigmaPlot (Systat Software, San Jose, CA, USA).

BaAG2 [8] = molecular target: T1, BaAG2; assay: Differential scanning fluorimetry (DSF) thermostability of BaAG2 with ligands; assay type: binding; conditions: 2 µM BaAG2, unliganded Tm 51 °C; 100 mM fructose, 50 mM palatinose, 50 mM glucose, 5 mM Tris, 5 mM acarbose; HEPES pH 7.0
Method: The reaction was conducted in 50 mM 4-(2-hydroxyethyl)-1-piperazineethanesulfonic acid) (HEPES) buffer (pH 7.0) with 150 mM NaCl. […] At least two independent experiments were performed with two technical replicates.

BaAG2 [9] = molecular target: T1, BaAG2; assay: Degradation of glucose polymers by BaAG2 (glucose release, TLC); assay type: biochemical; conditions: polysaccharide 5 g/L, 20 µg/mL enzyme
Method: Polysaccharide concentration in the reaction mixture was 5 g/L, and 20 µg/mL of the enzyme was used. At desired time points (2 h, 24 h, 74/96 h) aliquots were withdrawn and heated to stop the reaction. A negative control containing 20 µg/mL BSA instead of the enzyme was incubated alongside. Concentration of released glucose was measured as described above and 3 µl of the samples were analysed on TLC. Maltase from S. cerevisiae (ScMAL62), amyloglycosidase from Aspergillus niger (Sigma-Aldrich, Merck, Darmstadt, Germany) and α-amylase from Aspergillus oryzae (Sigma-Aldrich, Merck, Darmstadt, Germany) were reacted with tested glucose polymers for comparison.

For `OC[C@H]1O[C@@](CO)(O[C@H]2O[C@H](CO)[C@@H](O)[C@H](O)[C@H]2O)[C@@H](O)[C@@H]1O` [Sucrose, α-D-Glc-(1→2)-β-D-Fru], the “hydrolysis by BaAG2” value (BaAG2 [1]) is listed as “could hydrolyze” and the “assimilation by B. adeninivorans CBS 8244” value (“assimilation” below) [2] is listed as “assimilates”.

In the case of `OC[C@H]1O[C@H](OC[C@H]2O[C@H](O[C@H]3[C@H](O)[C@@H](O)C(O)O[C@@H]3CO)[C@H](O)[C@@H](O)[C@@H]2O)[C@H](O)[C@@H](O)[C@@H]1O` (stereo partly drawn) [panose, α-D-Glc-(1→6)-α-D-Glc-(1→4)-D-Glc], the “hydrolysis by BaAG2” value (BaAG2 [3]) is reported as “not hydrolyzed”.

For `OC[C@H]1O[C@H](O[C@H]2O[C@H](CO)[C@@H](O)[C@H](O)[C@H]2O)[C@H](O)[C@@H](O)[C@@H]1O` [trehalose], the “assimilation” value [2] is given as “assimilates”.

For `OC[C@H]1O[C@H](O[C@H]2[C@H](O)[C@@H](O)C(O)O[C@@H]2CO)[C@H](O)[C@@H](O)[C@@H]1O` (mixture of isomers) [Maltose], the “Catalytic constant (kcat)” value [4] is listed as 144 s⁻¹, the “hydrolysis by BaAG2” value (BaAG2 [1]) is listed as “could hydrolyze” and the “assimilation” value [2] is listed as “assimilates”. For the same molecule, the kcat [5] was 709 s⁻¹.

With Maltotriose the “hydrolysis by BaAG2” value (BaAG2 [1]) was “could hydrolyze” and the “growth of B. adeninivorans on sugar” value (B. adeninivorans) was “new growth substrates”.

In the case of `O=C(CO)[C@@H](O[C@H]1O[C@H](CO)[C@@H](O)[C@H](O)[C@H]1O)[C@H](O)[C@H](O)CO` [Turanose], the Km (BaAG2 [6]) is reported as 45.2 ± 6 mM, the “Vmax ± SD” value (BaAG2 [6]) is reported as 190.1 ± 10.4 µmol/mg/min and the “kcat ± SD” value (BaAG2 [6]) is reported as 215.1 ± 11.9 s⁻¹. For the same molecule, the “hydrolysis by BaAG2” value (BaAG2 [1]) was “could hydrolyze” and the “growth of B. adeninivorans on sugar” value (B. adeninivorans) was “new growth substrates”.

With `OC[C@H]1OC(O)[C@H](O)[C@@H](O)[C@@H]1O` (stereo partly shown) [Glucose] the “Inhibition Mode” value (BaAG2 [7]) was “Competitive” and the “increase of Tm in the presence of a ligand” value (BaAG2 [8]) was 4.4 °C.

`C[C@H]1O[C@H](O[C@H]2[C@H](O)[C@@H](O)[C@@H](O[C@H]3[C@H](O)[C@@H](O)C(O)O[C@@H]3CO)O[C@@H]2CO)[C@H](O)[C@@H](O)[C@@H]1N[C@H]1C=C(CO)[C@@H](O)[C@H](O)[C@H]1O` (stereo partly shown) [Acarbose, reference compound] gave a Ki (BaAG2 [7]; read-out: Ki ± SD, values marked * are given in µM, pH 6.5, 30 °C) of 0.83 ± 0.01 µM and a Ki (BaAG2 [7]; read-out: Ki ± SD, values marked * are given in µM, pH 6.5, 30 °C, listed as acarbose) of 0.8 µM.

In the case of `OC[C@H]1O[C@H](OC[C@H]2OC(O)(CO)[C@@H](O)[C@@H]2O)[C@H](O)[C@@H](O)[C@@H]1O` (stereo partly shown) [Palatinose], the “hydrolysis by BaAG2” value (BaAG2 [1]) is reported as “not hydrolyzed; also recorded: could not hydrolyze” and the “growth of B. adeninivorans on sugar” value (B. adeninivorans) is reported as “new growth substrates”.

For `CO[C@H]1O[C@H](CO)[C@@H](O)[C@H](O)[C@H]1O` [α-MG, α-methylglucoside, reference compound], the “hydrolysis by BaAG2” value (BaAG2 [1]) was “could not hydrolyze”, the “hydrolysis by BaAG2” value (BaAG2 [1]; listed as α-methylglucoside) was “not hydrolyzed” and the “Inhibition Mode” value (BaAG2 [7]) was “Competitive”. The “assimilation” value [2] was “assimilates”.

In the case of `O=C(CO)[C@@H](O)[C@H](O)[C@H](O)CO` [Fructose], the “Inhibition Mode” value (BaAG2 [7]) is reported as “Competitive”.

For `OC[C@H]1O[C@H](OC[C@H]2OC(O)[C@H](O)[C@@H](O)[C@@H]2O)[C@H](O)[C@@H](O)[C@@H]1O` (stereo partly shown) [Isomaltose], the “hydrolysis by BaAG2” value (BaAG2 [1]) was “not hydrolyzed”, the “hydrolysis by BaAG2” value (BaAG2 [1]; listed as isomaltose) was “could not hydrolyze” and the “Inhibition Mode” value (BaAG2 [7]) was “Competitive”. For the same molecule, the “growth of B. adeninivorans on sugar” value (B. adeninivorans) was “new growth substrates”.

Molecule amylopectin has a glucose released (BaAG2 [9]; by 24 h) of 0.1 g/L and a glucose released (BaAG2 [9]; by 72 h) of 0.3 g/L.

For Maltulose, the Km (BaAG2 [6]) was 7.8 ± 1 mM, the “Vmax ± SD” value (BaAG2 [6]) was 52.2 ± 1.8 µmol/mg/min and the “kcat ± SD” value (BaAG2 [6]) was 59.1 ± 2.1 s⁻¹. The “hydrolysis by BaAG2” value (BaAG2 [1]) was “could hydrolyze” and the “growth of B. adeninivorans on sugar” value (B. adeninivorans) was “new growth substrates”.

For `O=[N+]([O-])c1ccc(O[C@@H]2O[C@H](CO)[C@H](O)[C@H](O)[C@H]2O)cc1` [pNPG, p-nitrophenyl-α-D-glucopyranoside, reference compound], the Vmax (BaAG2 [6]) was “over 750 U/mg”, the Km (BaAG2 [6]) was 0.76 ± 0.03 mM and the “Vmax ± SD” value (BaAG2 [6]) was 751.3 ± 14.5 µmol/mg/min. For the same molecule, the “kcat ± SD” value (BaAG2 [6]) was 850.2 ± 16.4 s⁻¹ and the “hydrolysis by BaAG2” value (BaAG2 [1]) was “could hydrolyze”.

In the case of `OC[C@H]1O[C@@](CO)(O[C@H]2O[C@H](CO)[C@@H](O)[C@H](O)[C@H]2O)[C@@H](O[C@H]2O[C@H](CO)[C@@H](O)[C@H](O)[C@H]2O)[C@@H]1O` [Melezitose], the “Vmax ± SD” value (BaAG2 [6]) is reported as 231.0 ± 31.8 µmol/mg/min, the “kcat ± SD” value (BaAG2 [6]) is reported as 261.4 ± 36.1 s⁻¹ and the “hydrolysis by BaAG2” value (BaAG2 [1]) is reported as “could hydrolyze”. For the same molecule, the “assimilation” value [2] was “assimilates”.
